The results in this text go back to US20260055398A1, “IMPROVED POLYMER DEGRADING ENZYMES” (CAMBRIDGE ENTERPRISE LIMITED, priority 2022, published 2026).

What all share (assay type): biochemical
The subject of assay [1] is N20O1. Put plainly: Kinetics of p-NP acyl ester hydrolysis by N20O1. The conditions noted are these: 50 mM Tris-HCl pH 8.0, 0.3% (v/v) triton X-100, 22° C. Here is the method:
The activity of all esterase hits was determined via hydrolysis of p-nitrophenol (p-NP) carboxylesterase by monitoring the release of p-nitrophenol. The amount of p-nitrophenol released was quantified by absorbance at 405 nm (εpNP=17,000 M−1.cm−1) using a Spectramax 190 microplate reader (Molecular Devices). Unless otherwise indicated, the measurements were performed at 22° C. in triplicate using 96-well plates with a final assay volume of 100 μL in 50 mM Tris-HCl pH 8.0 and 0.3% (v/v) triton X-100. The substrate specificity was investigated by measuring the hydrolysis of the following p-NP-fatty acyl esters: butyrate (C4), hexanoate (C6 from TCI Chemicals, H0484), octanoate (C8), decanoate (C10), dodecanoate (C12), myristate (C14) and palmitate (C16). The kinetic parameters for each substrate were obtained by non-linear regression of the data using the Michaelis-Menten equation: V=Vmax*[S]/(Km+[S]), where V is the rate, Vmax is the maximum rate achieved by the reaction, S is the substrate concentration, and Km is the Michaelis-Menten constant. The effect of the pH was evaluated by measuring the enzyme activity at pH 4.0 to 11.0 in 50 mM of the following buffers containing 0.3% (v/v) triton X-100: sodium citrate at pH 4.0, pH 5.0 and 6.0; phosphate at pH 6.0, 7.0, 8.0; Tris-HCl at pH 7.0, 8.0 and 9.0; N-cyclohexyl-3-aminopropanesulfonic acid (CAPS) at pH 9.5, 10.0, 11.0. […]

The test system of assay [2] is RR11O2. Put plainly: Kinetics of p-NP acyl ester hydrolysis by RR11O2. The conditions noted are these: 50 mM Tris-HCl pH 8.0, 0.3% (v/v) triton X-100, 22° C. Here is the method:
(B) Detail of RR11O2's cavity (in blue) and the catalytic triad (in cyan) S149, D311 and H308. (C) The catalytic efficiencies of RR11O2 measured against p-NP acyl esters [acetate (C2), butyrate (C4), hexanoate (C6), octanoate (C8), decanoate (C10), dodecanoate (C12), myristate (C14) and palmitate (C16)]. The reactions were performed in buffer containing 50 mM Tris-HCl PH 8.0 and 0.3% (v/v) Triton X-100 at 22° C.
The activity of all esterase hits was determined via hydrolysis of p-nitrophenol (p-NP) carboxylesterase by monitoring the release of p-nitrophenol. The amount of p-nitrophenol released was quantified by absorbance at 405 nm (εpNP=17,000 M−1.cm−1) using a Spectramax 190 microplate reader (Molecular Devices). Unless otherwise indicated, the measurements were performed at 22° C. in triplicate using 96-well plates with a final assay volume of 100 μL in 50 mM Tris-HCl pH 8.0 and 0.3% (v/v) triton X-100. The substrate specificity was investigated by measuring the hydrolysis of the following p-NP-fatty acyl esters: butyrate (C4), hexanoate (C6 from TCI Chemicals, H0484), octanoate (C8), decanoate (C10), dodecanoate (C12), myristate (C14) and palmitate (C16). The kinetic parameters for each substrate were obtained by non-linear regression of the data using the Michaelis-Menten equation: V=Vmax*[S]/(Km+[S]), where V is the rate, Vmax is the maximum rate achieved by the reaction, S is the substrate concentration, and Km is the Michaelis-Menten constant. The effect of the pH was evaluated by measuring the enzyme activity at pH 4.0 to 11.0 in 50 mM of the following buffers containing 0.3% (v/v) triton X-100: sodium citrate at pH 4.0, pH 5.0 and 6.0; phosphate at pH 6.0, 7.0, 8.0; Tris-HCl at pH 7.0, 8.0 and 9.0; N-cyclohexyl-3-aminopropanesulfonic acid (CAPS) at pH 9.5, 10.0, 11.0.
The enzyme activity of purified RR11O2, Bla-CI5En2 and IsPETase was tested against different p-NP acyl esters [acetate (C2), butyrate (C4), hexanoate (C6), octanoate (C8), decanoate (C10), dodecanoate (C12) and myristate (C14)]. The final enzyme concentration of the enzymes in the reaction depended on the p-NP acyl ester used as substrate. Kinetics were measured at enzyme concentrations of RR11O2, Bla-CI5En2 and IsPETase between 31.25 μM to 23.2 μM, 2.5 nM to 50 nM, and 50 nM to 4.8 μM, respectively. The p-NP acyl ester substrates were used in a concentration range between 0 and 4 mM. The kinetic parameters Vmax and Km were calculated using Kaleidagraph by non-linear lest square fits of initial rates to the Michaelis-Menten equation. […] The released p-nitrophenol was monitored spectro-photometrically at 405 nm (εpNP=18.300 M−1.cm−1) by taking time points in 20 second intervals in a SpectraMax® M3 Microplate Reader (Molecular Devices).

A short description of assay [3]: Enzymatic degradation of PET (nanoparticles, film), HPLC of released TPA and MHET. From the text: (A) Sequence network of currently known PETases and a novel esterase metagenomic-derived, RR11O2. […] Grey nodes represent sequences extracted from MGnify and NCBI. Red node represents RR11O2, blue nodes represent known PETases, green and orange nodes represent reported cutinases and esterases showing PET activity, respectively, and light blue nodes represent described polyester degrading enzymes in the literature. To putatively characterise sequence clusters, the identification of PETases, cutinases, esterases and RR11O2 in the network helped to define the potential clusters. The cluster of RR11O2, CI5En2 and PETase are written in grey. (B) PET hydrolases catalyze the depolymerization of poly(ethylene terephthalate) (PET) to bis(2-hydroxyethyl) terephthalate (BHET), mono(2-hydroxyethyl)-terephthalic (MHET) or terephthalic acid (TPA) and ethylene glycol (EG). During characterizations via high-performance liquid chromatography (HPLC) MHET and TPA have been identified as main products. […] Absorbance at 250 nm was monitored.
(A) Enrichment of variants with higher activity compared to wildtype after sorting the ep-PCR library of CI5En2. […] Amount of the released monomers TPA and MHET was determined via HPLC and corresponding standard curves for TPA and MHET. […]
HPLC analysis of the products released after one week incubation at 30° C. using 6 μM pExp-bla-CI5En2-WT. Absorbance at 250 nm was monitored which detects released TPA and MHET.
To detect the release of TPA, MHET and BHET in the presence of various enzymes, aliquots were taken from reaction mixtures, turnover was stopped by addition of an equal volume of methanol containing 0.5% formic acid, centrifuged (16,100×g, 15 min) and analysed by HPLC (1260 Infinity II, Agilent; Nucleodur C18 analytical EC standard column (5 μm, 4×125 mm, Macherey-Nagel, Germany). As the mobile phase mixtures of buffer A (0.1% formic acid in distilled water) and buffer C (distilled water), as well as buffer D (acetonitrile) were used at a flow rate of 1 mL/min. Buffer A was kept at 20% for the whole run. […]

Regarding `CC(=O)Oc1ccc([N+](=O)[O-])cc1` [Substrate 3a, p-NP acetate], in assay [1], the Km was determined as 3.8 mM and the catalytic constant (kcat) was 520 s⁻¹. For the same molecule, in assay [2], the Michaelis-Menten constant (Km) came out at 30 mM and the turnover number (kcat) worked out at 390 s⁻¹.
For `CCCC(=O)Oc1ccc([N+](=O)[O-])cc1` [Substrate 3b, p-NP butyrate], in assay [1], the Km amounted to 2.2 mM and the kcat amounted to 630 s⁻¹. Moreover, in assay [2], the Km was determined as 2.2 mM and the catalytic constant (kcat) worked out at 46 s⁻¹.
`CCCCCC(=O)Oc1ccc([N+](=O)[O-])cc1` [Substrate 3c, p-NP hexanoate]: in assay [1], the Michaelis-Menten constant (Km) came out at 1.4 mM and the kcat was 250 s⁻¹. Moreover, in assay [2], the Km stood at 0.72 mM and the kcat worked out at 35 s⁻¹.
Turning to `CCCCCCCC(=O)Oc1ccc([N+](=O)[O-])cc1` [Substrate 3d, p-NP octanoate], the Km in assay [1] worked out at 1.1 mM; in assay [2], 0.37 mM. Also, the kcat in assay [1] came out at 370 s⁻¹; in assay [2], 11 s⁻¹.
For `CCCCCCCCCC(=O)Oc1ccc([N+](=O)[O-])cc1` [Substrate 3e, p-NP decanoate], the figures for the Michaelis-Menten constant (Km) in assay [1] and in assay [2] were 1.5 mM and 2 mM, respectively. Besides, the values for the kcat in assay [1] and in assay [2] were 31 s⁻¹ and 5.4 s⁻¹, respectively.
The corresponding values for `CCCCCCCCCCCC(=O)Oc1ccc([N+](=O)[O-])cc1` [Substrate 3f, p-NP dodecanoate] are 2 mM, 2.8 mM, 0.5 s⁻¹ and 0.78 s⁻¹.
Take `CCCCCCCCCCCCCC(=O)Oc1ccc([N+](=O)[O-])cc1` [Substrate 3g, p-NP myristate]: the Michaelis-Menten constant (Km) in assay [1] was determined as 4.4 mM; in assay [2], 1.5 mM. Moreover, the figures for the kcat in assay [1] and in assay [2] were 0.042 s⁻¹ and 0.039 s⁻¹, respectively.
`CCCCCCCCCCCCCCCC(=O)Oc1ccc([N+](=O)[O-])cc1` [Substrate 3h, p-NP palmitate]: the Michaelis constant (Km) in assay [1] came out at 4.8 mM; in assay [2], 7.4 mM. The turnover number (kcat) in assay [1] came out at 0.016 s⁻¹; in assay [2], 0.017 s⁻¹.

B1: RR11O2: metagenomic-derived esterase with promiscuous activity on PET; amino acid SEQ ID NO. 4; PDB 6ZZV (protein)
chain: MSENMNRPLDYSQKANWYQIPEVTKEFDTFYVYATEYILSSMEEGAPDYADMENAEMLEGAAAEYMLHATAYADSTNVFMPYYRQVGLRYAGVVWKRDGIFDASVAGMPYGDIVAALDYYFEHYNNGRPFIIAGHSQGSAIIKMVLKKYFVEHPDYYKRMIAAYPIGYAFTKDEFKTYPHMKFATGECDTGVIITWNTEGPKNREVNADTCVLQPGSMSINPLNWKLDDTYAPASMNLGSLFPNKDTGKLEIQDLGADAQVFPDRGVVVTHAMGEEMTEETAKVAAEFFGPDGRHGEDYVLFYCNIKDNVAKRISAYMANRK
modifications: RR1102
Regarding B1, the “promiscuous activity on PET” value in assay [3] is given as “exhibits promiscuous activity on PET”.
